Data taken from patent US7998414B2, “System for high throughput GPCR functional assay” (priority 2007, dated 2011).

Target: T1, opioid receptor mu (OPRM) (Homo sapiens, UniProt P35372)
T1 construct: purchased Perkin-Elmer Life Science (Boston, Mass.)
Experiment: Eu-GTP based functional assay on GPCR microarray on porous glass substrate
Assay type: biochemical
Conditions: multiplexed array; Eu-GTP 10 nM, GDP 3 μM, 1 hour; FIG. 5E

T1 sequence (P35372 whole entry): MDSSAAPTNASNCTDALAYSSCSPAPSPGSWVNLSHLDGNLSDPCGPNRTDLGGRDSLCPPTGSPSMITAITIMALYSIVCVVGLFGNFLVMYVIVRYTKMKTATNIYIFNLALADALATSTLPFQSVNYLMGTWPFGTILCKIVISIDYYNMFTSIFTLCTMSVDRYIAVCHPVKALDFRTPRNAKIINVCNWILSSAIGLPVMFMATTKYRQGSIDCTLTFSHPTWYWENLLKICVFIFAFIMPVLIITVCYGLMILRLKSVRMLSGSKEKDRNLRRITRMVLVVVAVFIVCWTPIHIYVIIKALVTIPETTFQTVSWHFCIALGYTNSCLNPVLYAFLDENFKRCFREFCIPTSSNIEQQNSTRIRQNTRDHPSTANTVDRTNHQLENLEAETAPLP

C[C@@H](NC(=O)[C@@H](N)Cc1ccc(O)cc1)C(=O)NCC(=O)N(C)[C@@H](Cc1ccccc1)C(=O)NCCO [DAMGO]
activation of OPRM receptors by agonist (Eu-GTP fluorescence image): selective activation
